Columns and labels:
[1] = system: OSA human patients; test: Placebo-controlled, double-blinded, randomized, crossover trial in OSA; type: in vivo; settings: once daily 5-10 mg, 30 minutes before sleep
Protocol: A placebo-controlled, double-blinded, randomized, crossover trial in OSA human patients is performed. Participants receive treatment (once daily taltirelin 5-10 mg) or placebo in randomized order 30 minutes before sleep.

[2] = system: healthy human individuals; test: Pilot study of genioglossus muscle activity (EMGGG); type: in vivo
Protocol: In healthy human individuals, the effect of once daily taltirelin 5 mg on genioglossus muscle activity is measured in a pilot study.
A first group of the patients is given once daily taltirelin 5 mg. A second group of patients is given placebo. Genioglossus muscle activity (EMGGG, quantified as a percentage of maximum) is measured during quiet wakefulness. Each peak EMGGG of a single breath is measured and is plotted against the corresponding epiglottic pressure. In addition, EMGGG is measured during stable NREM sleep.

In the case of `CN1C(=O)C[C@@H](C(=O)N[C@@H](Cc2cnc[nH]2)C(=O)N2CCC[C@H]2C(N)=O)NC1=O` [taltirelin], the “genioglossus muscle responsiveness to an increase in ventilatory drive” value [1] is reported as “increased genioglossus muscle responsiveness”, the “oxygen levels (SaO2)” value [1] is reported as “increased oxygen levels” and the sleep efficiency [1] is reported as “improved sleep efficiency”. The total sleep time [1] was “increased total sleep time”, the “upper airway muscle activity” value [1] was “improved upper airway muscle activity” and the ventilation [1] was “improved ventilation”. For the same compound, the OSA severity ([1]; all patients) was “improvement in OSA severity”, the apnea hypopnea index ([1]; vs placebo) was “reduce the apnea hypopnea index” and the “EMGGG activity during NREM sleep compared to placebo” value ([2]; once daily 5 mg, NREM sleep) was “much higher EMGGG activity”. The “effect during REM sleep” value ([2]; once daily 5 mg, subjects exhibiting REM sleep) was “effective during REM sleep” and the “sleep-related reduction in pharyngeal muscle activity (EMGGG)” value ([2]; once daily taltirelin 5 mg vs placebo night, during sleep) was “partially or completely prevented”.

Source: patent publication US20230135373A1, “METHODS AND COMPOSITIONS FOR TREATING SLEEP APNEA” (APNIMED, INC. (DELAWARE), priority 2020, published 2023)
